Like-named read-outs stand apart in the source and are kept apart here.
Columns and labels:
NaV1.3 = NaV1.3 (Homo sapiens (Human), UniProt Q9NY46); assay: Selectivity test for Nav ion channel subtypes: NaV1.3 (HEK293, patch clamp); format: cell-based; details: 1 uM; HEK293 cells
Method: (§1) Test Case 3: Compound Selectivity Test for Nav Ion Channel Subtypes
(§2) The aim of this test is to investigate effect of compounds on human Na ion channel cells expressed in steady-state (NaV1.1, NaV1.3, NaV1.4, NaV1.5, NaV1.6, NaV1.7). After Na ion currents is stabilized, the effect can be obtained by comparing the magnitude of Na channel currents before and after the application of the compounds.
(§3) The test compound is stored at a concentration of 9 mM in dimethyl sulfoxide (DMSO), and on the day of testing, dissolve in extracellular solution, then prepare to a screening concentration of 1 uM.
(§4) All experiments are performed at room temperature. Each cell itself is taken as the corresponding control.
(§5) At least one cell is tested per concentration.
(§6) HEK293 cells steadily expressing NaV1.1-, NaV1.3-, NaV1.4-, NaV1.5-, NaV1.6-ion channels; CHO cells expressing steadily NaV1.7 ion channel.
(§7) The intracellular fluid (mM) is: Aspartic acid, 140; MgCl2, 2; EGTA 11; HEPES, 10; pH 7.2 (CsOH titration). […] Electrodes are drawn with PC-10 (Narishige, Japan). Recording is performed with whole-cell diaphragm clamp.
(§8) Cells are clamped at −80 mV and then depolarized to −10 mV with a sustained 10 ms square wave to obtain Na ion channel currents (see the FIGURE). This process is repeated every 5 seconds. […] The strength of the block is calculated after the response is stabilized.

NaV1.7 = NaV1.7 (Homo sapiens (Human), UniProt Q15858); assay: Selectivity test for Nav ion channel subtypes: NaV1.7 (CHO cells, patch clamp); format: cell-based; details: 1 uM
Method: as §1, §2, §3, §4, §5, §6, §7, §8

hERG ion channels = hERG ion channels (Homo sapiens (Human), UniProt Q12809); assay: Inhibition activity test on hERG ion channels in HEK293 cells (cardiac safety, patch clamp)
hERG ion channels, sequence (Q12809 whole entry): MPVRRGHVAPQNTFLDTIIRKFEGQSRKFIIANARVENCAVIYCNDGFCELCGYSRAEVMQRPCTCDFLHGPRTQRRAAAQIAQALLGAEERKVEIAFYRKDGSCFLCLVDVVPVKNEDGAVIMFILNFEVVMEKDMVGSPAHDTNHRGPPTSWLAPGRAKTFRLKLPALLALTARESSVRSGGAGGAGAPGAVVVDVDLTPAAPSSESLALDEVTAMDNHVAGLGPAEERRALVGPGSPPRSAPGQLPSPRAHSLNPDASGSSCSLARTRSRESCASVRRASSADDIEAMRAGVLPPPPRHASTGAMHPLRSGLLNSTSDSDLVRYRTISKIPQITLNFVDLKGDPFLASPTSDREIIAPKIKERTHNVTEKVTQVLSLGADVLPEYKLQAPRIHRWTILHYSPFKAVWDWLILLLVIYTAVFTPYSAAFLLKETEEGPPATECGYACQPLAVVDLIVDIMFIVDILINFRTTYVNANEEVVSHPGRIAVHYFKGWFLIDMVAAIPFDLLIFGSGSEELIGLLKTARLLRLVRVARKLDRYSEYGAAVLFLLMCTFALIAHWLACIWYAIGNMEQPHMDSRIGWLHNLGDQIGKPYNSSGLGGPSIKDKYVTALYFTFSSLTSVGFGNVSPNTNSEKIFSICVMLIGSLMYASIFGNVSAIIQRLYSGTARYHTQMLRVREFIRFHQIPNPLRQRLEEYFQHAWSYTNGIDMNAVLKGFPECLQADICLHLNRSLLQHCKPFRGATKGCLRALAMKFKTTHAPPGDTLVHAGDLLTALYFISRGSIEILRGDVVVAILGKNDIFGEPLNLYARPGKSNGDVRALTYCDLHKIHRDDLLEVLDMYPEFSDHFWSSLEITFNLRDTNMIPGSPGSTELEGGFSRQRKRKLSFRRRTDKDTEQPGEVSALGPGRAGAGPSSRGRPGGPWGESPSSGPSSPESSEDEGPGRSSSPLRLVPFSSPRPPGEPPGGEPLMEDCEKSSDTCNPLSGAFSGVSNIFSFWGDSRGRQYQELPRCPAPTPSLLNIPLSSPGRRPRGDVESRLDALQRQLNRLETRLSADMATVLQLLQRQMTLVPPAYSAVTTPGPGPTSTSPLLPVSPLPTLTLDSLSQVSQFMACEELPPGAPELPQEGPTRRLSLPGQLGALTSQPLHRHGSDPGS
Method: This experiment is used as a cardiac safety test of compound.
The reagents are purchased from Sigma (St. Louis, MO) except NaOH and KOH for acid-base titration. Final concentrations of tested solutions are prepared on the testing day and dissolved in extracellular fluid. […] All the test solutions and the control solutions contain 0.3% DMSO. Intracellular fluid (mM) contains: K Aspartate, 130; MgCl2, 5; EGTA 5; HEPES, 10; Tris-ATP 4; pH 7.2 (KOH titration).
Cells: all experiments is performed at room temperature. Each cell itself is taken as the corresponding control.
Compounds are all perfused using a perfusion system that utilizes the gravity. At least two cells are tested per concentration. After current stabilization (or 5 minutes), the change in current magnitude before and after the use of the compound is compared to calculate the blocking effect of the compound.
The method of operation is the same as that of the test compound.
Electrophysiology: Transfer the Cells to the perfusion tank and perfuse with extracellular fluid. The intracellular fluid (mM) contains: K Aspartate, 130; MgCl2, 5; EGTA 5; HEPES, 10; Tris-ATP 4; pH 7.2 (KOH titration). The intracellular fluid is stored in small quantities in portions in a −80° C. refrigerator, and melt on the day of the experiment. Electrodes are drawn with PC-10 (Narishige, Japan). Recording is performed with whole-cell diaphragm clamp. Noise is filtered with one-fifth of the sampling frequency.
This process is repeated every 20 seconds. The hERG tail current is the pure hERG current. The maximum tail current triggered by the second square wave is detected, and when the current is stabilized, the test compound is perfused. The strength of the block is calculated when the response is stabilized.

human NaV1.8 ion channel = human NaV1.8 ion channel (Homo sapiens (Human), UniProt Q9Y5Y9); assay: Compound inhibition activity on human NaV1.8 ion channel in HEK293 cells (whole-cell patch clamp); format: cell-based; details: 100 nm concentration, HEK293 cells, resting protocol
NaV1.5 = NaV1.5 (Homo sapiens (Human), UniProt Q14524); assay: Selectivity test for Nav ion channel subtypes: NaV1.5 (HEK293, patch clamp); format: cell-based; details: 1 uM; HEK293 cells
Method: as §1, §2, §3, §4, §5, §6, §7, §8

NaV1.6 = NaV1.6 (Homo sapiens (Human), UniProt Q9UQD0); assay: Selectivity test for Nav ion channel subtypes: NaV1.6 (HEK293, patch clamp); format: cell-based; details: 1 uM; HEK293 cells
NaV1.6, sequence (Q9UQD0 whole entry): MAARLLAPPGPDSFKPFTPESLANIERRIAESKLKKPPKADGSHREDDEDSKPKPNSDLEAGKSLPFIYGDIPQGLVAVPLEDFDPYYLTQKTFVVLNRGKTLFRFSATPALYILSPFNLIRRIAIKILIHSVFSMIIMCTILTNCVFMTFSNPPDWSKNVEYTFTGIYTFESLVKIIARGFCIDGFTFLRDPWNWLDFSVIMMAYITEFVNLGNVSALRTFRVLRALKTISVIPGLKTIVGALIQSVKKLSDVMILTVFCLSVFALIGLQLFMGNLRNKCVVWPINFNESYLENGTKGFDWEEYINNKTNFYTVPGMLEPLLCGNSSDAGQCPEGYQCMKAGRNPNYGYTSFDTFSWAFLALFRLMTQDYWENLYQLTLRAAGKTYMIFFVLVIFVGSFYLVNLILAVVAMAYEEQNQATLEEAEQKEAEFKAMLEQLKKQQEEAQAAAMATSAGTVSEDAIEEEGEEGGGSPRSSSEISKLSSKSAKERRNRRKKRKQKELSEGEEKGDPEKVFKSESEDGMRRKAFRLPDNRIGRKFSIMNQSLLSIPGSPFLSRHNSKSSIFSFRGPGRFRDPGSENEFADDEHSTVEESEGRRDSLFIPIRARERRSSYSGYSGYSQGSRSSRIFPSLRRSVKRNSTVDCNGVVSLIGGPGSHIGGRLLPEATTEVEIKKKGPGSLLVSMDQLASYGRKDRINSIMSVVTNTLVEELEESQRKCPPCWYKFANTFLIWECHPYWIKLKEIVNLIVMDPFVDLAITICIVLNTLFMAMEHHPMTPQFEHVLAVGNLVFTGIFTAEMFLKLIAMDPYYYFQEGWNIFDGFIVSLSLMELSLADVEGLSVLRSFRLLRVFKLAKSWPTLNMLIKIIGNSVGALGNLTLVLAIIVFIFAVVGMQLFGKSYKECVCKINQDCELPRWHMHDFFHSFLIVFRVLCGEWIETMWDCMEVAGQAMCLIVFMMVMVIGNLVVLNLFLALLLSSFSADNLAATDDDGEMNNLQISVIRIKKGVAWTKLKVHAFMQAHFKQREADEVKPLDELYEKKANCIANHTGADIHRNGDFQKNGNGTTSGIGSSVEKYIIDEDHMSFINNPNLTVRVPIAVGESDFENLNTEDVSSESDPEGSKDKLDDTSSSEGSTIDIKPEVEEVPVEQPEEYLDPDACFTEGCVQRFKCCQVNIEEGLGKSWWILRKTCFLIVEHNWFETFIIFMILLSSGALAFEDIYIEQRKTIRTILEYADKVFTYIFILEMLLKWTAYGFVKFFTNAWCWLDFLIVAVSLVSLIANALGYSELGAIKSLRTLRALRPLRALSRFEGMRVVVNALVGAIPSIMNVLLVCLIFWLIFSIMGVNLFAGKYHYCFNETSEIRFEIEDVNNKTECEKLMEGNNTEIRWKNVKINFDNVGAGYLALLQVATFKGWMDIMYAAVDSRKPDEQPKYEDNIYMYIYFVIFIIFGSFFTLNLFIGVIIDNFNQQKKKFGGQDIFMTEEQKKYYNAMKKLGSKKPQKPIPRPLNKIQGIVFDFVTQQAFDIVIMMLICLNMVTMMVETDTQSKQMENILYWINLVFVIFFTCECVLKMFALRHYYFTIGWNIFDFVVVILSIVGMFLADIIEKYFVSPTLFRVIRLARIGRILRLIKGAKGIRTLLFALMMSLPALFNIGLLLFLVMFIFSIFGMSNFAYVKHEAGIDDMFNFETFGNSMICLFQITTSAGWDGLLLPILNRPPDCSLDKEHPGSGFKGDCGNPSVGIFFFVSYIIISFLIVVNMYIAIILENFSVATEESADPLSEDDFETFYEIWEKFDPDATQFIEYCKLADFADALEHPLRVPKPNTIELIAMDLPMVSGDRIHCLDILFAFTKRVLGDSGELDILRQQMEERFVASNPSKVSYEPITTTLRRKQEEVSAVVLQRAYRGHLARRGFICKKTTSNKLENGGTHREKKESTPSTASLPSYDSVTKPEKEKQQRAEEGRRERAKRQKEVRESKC
Method: as §1, §2, §3, §4, §5, §6, §7, §8

NaV1.4 = NaV1.4 (Homo sapiens (Human), UniProt P35499); assay: Selectivity test for Nav ion channel subtypes: NaV1.4 (HEK293, patch clamp); format: cell-based; details: 1 uM; HEK293 cells
Method: as §1, §2, §3, §4, §5, §6, §7, §8

[1] = In vivo pharmacokinetic testing of compounds in rats; details: male SD rats, single oral dose 100 mg/kg, plasma, VX-150 dosed as prodrug, active form analysed
Method: Test Case 4: In Vivo Pharmacokinetic Testing of Compounds in Rats
All SD rats in the test are male and are purchased from Shanghai Sippe-Bk Lab Animal Co., Ltd. Each compound is administered orally (100 mg/kg, 3 rats per group) at single dose to SD rats for pharmacokinetic study. The solutions are prepared on the same day of administration, e.g., the tested compound is suspended in 5% DMSO+95% saline, get vortexed for 2 min, and sonicated for 5 min to prepare a drug delivery system. The animals are fasted for 10-14 hours before oral administration, and resumed food 4 hours after administration. After oral administration by gavage in SD rats, pharmacokinetic samples are collected from jugular vein at the following time points: 0, 15 min, 30 min, 1 h, 2 h, 4 h, 6 h, 8 h and 24 h. Three whole blood samples are collected at each time point in a volume of about 0.2 mL and anticoagulated using sodium heparin. Blood samples are placed on ice immediately after collection and plasma is separated by centrifugation within 1 h (centrifugation conditions: 6800 rpm, 6 min, 2-8° C.). The collected plasma is stored in a −80° C. refrigerator prior to analysis.
In pharmacokinetic tests in rat, the control compound VX-150 is a prodrug (WO2015089361, compound 9), after administration, analysis is performed to test its active form (WO2014120808, compound 10). The aforementioned in vitro pharmacological tests are performed using the active ingredient (WO2014120808, compound 10).

NaV1.1 = NaV1.1 (Homo sapiens (Human), UniProt P35498); assay: Selectivity test for Nav ion channel subtypes: NaV1.1 (HEK293, patch clamp); format: cell-based; details: 1 uM; HEK293 cells
Method: as §1, §2, §3, §4, §5, §6, §7, §8

[2] = read-out: Inhibition ratio of compounds against Nav1.8 (Activity of inhibition)
[3] = read-out: Inhibition ratio of Nav1.8 (Activity of inhibition)

NaV1.3, sequence (Q9NY46 whole entry): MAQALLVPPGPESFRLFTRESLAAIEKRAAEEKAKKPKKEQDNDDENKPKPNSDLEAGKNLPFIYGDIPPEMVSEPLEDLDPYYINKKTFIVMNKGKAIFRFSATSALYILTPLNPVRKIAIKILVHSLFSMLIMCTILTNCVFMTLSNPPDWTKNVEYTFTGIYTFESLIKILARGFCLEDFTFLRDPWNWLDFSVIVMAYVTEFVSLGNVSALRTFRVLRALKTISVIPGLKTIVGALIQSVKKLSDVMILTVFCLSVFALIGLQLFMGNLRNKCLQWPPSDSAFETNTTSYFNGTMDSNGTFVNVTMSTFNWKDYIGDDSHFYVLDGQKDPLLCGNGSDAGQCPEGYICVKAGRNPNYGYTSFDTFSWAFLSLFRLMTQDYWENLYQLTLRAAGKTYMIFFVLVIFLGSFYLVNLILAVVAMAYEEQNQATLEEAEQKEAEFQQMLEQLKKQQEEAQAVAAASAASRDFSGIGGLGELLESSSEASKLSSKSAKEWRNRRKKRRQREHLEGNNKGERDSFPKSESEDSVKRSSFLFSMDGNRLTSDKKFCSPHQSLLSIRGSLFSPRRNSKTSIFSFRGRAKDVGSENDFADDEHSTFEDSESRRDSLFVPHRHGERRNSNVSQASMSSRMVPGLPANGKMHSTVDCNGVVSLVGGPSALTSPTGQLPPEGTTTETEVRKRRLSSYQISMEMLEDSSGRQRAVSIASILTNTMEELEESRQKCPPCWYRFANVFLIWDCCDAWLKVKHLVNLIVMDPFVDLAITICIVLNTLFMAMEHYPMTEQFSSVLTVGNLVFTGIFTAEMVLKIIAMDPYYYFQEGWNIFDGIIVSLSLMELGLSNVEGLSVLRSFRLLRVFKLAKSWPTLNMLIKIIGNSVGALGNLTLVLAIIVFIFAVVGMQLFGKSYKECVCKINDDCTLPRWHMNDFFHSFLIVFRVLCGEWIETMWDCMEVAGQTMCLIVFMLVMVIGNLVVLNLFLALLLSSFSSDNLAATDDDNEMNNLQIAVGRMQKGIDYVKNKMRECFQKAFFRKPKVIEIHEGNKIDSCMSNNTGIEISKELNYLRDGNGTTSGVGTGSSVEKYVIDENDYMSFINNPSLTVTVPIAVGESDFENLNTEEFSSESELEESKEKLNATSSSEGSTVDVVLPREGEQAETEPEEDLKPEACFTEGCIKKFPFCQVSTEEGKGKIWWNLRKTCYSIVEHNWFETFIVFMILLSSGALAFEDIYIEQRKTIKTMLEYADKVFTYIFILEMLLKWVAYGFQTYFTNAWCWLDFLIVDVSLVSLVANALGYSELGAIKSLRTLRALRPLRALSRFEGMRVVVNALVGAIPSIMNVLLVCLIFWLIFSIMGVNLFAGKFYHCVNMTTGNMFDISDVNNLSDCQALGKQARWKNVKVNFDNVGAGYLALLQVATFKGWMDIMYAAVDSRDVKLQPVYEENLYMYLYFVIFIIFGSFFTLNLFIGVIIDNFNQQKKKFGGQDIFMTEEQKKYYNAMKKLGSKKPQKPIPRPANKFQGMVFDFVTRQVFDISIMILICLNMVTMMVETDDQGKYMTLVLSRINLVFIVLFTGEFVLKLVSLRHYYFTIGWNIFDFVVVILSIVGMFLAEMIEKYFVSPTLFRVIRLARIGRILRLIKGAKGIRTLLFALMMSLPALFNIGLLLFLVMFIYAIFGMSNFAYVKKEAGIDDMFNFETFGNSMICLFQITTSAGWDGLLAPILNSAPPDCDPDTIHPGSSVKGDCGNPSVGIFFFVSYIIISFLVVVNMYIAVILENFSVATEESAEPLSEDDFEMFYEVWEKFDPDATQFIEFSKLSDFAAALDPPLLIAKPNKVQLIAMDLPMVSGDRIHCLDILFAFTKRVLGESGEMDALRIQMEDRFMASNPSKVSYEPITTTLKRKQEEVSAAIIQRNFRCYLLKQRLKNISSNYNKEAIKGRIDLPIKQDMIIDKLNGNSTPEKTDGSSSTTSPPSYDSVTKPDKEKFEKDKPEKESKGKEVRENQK

Inhibition ratio on Nav1.3 (NaV1.3) [%]	Inhibition ratio on Nav1.7 (NaV1.7) [%]	inhibition at 0.1 µM (human NaV1.8 ion channel; [2]) [%]	Inhibition ratio on Nav1.6 (NaV1.6) [%]	Inhibition ratio on Nav1.4 (NaV1.4) [%]	half-life ([1]; rat) [h]	AUC ([1]; rat, read-out: AUC) [ng·h/mL]	Cmax ([1]; rat, read-out: Cmax) [ng/mL]	Inhibition ratio on Nav1.1 (NaV1.1) [%]	Inhibition ratio of Nav1.8 (Activity of inhibition) (human NaV1.8 ion channel)	AUC [1] [ng·h/mL]	Cmax [1] [ng/mL]	T1/2 [1] [h]	inhibition at 0.1 µM (human NaV1.8 ion channel; [3]) [%]	SMILES	IC50 (hERG ion channels; human, pH 7.4) [µM]	Inhibition ratio on Nav1.5 (NaV1.5) [%]	IC50 (hERG ion channels) [µM]	IC50 (hERG ion channels; read-out: IC50 for hERG inhibited by compounds, HEK293 cells, hERG tail current) [µM]
4.3	1.3	> 80	2.8	<1	5.1	58000	5140	1.5						Cc1cc(F)ccc1Oc1cc(C2CC2)c(C(F)(F)F)cc1C(=O)Nc1ccnc(OC[C@H](O)CO)c1 [Example 104]	3.8	<1		
4.4	<1	> 80	8.3	2.7	11.7	154000	7640	4.8						Cc1cc(F)ccc1Oc1cc(C(F)(F)F)c(Cl)cc1C(=O)Nc1ccnc(OC[C@H](O)CO)c1 [Example 114, (R)-5-chloro-N-(2-(2,3-dihydroxypropoxy)pyridin-4-yl)-2-(4-fluoro-2-methylphenoxy)-4-(trifluoromethyl) benzamide]		5.9	22.3	
3.7	<1	50 to 80	2.6	<1	8.7	42500	2570	1.2						Cc1cc(F)ccc1Oc1cc(C(F)(F)F)c(Cl)cc1C(=O)Nc1cnnc(OC[C@H](O)CO)c1 [Example 116]	15.6	<1		

The next lines start with the molecule.

SMILES	Inhibition ratio on Nav1.3 (NaV1.3) [%]	Inhibition ratio on Nav1.7 (NaV1.7) [%]	inhibition at 0.1 µM (human NaV1.8 ion channel; [2]) [%]	Inhibition ratio on Nav1.6 (NaV1.6) [%]	Inhibition ratio on Nav1.4 (NaV1.4) [%]	half-life ([1]; rat) [h]	AUC ([1]; rat, read-out: AUC) [ng·h/mL]	Cmax ([1]; rat, read-out: Cmax) [ng/mL]	Inhibition ratio on Nav1.1 (NaV1.1) [%]	Inhibition ratio of Nav1.8 (Activity of inhibition) (human NaV1.8 ion channel)	AUC [1] [ng·h/mL]	Cmax [1] [ng/mL]	T1/2 [1] [h]	inhibition at 0.1 µM (human NaV1.8 ion channel; [3]) [%]	IC50 (hERG ion channels; human, pH 7.4) [µM]	Inhibition ratio on Nav1.5 (NaV1.5) [%]	IC50 (hERG ion channels) [µM]	IC50 (hERG ion channels; read-out: IC50 for hERG inhibited by compounds, HEK293 cells, hERG tail current) [µM]
Cc1cc(F)ccc1Oc1cc(C2CC2)c(C(F)(F)F)cc1C(=O)Nc1cnnc(OC[C@H](O)CO)c1 [Example 112]			20 to 50			6.3	115000	8270										
Cc1cc(F)ccc1Oc1cc(C(F)(F)F)ccc1C(=O)Nc1ccn(COP(=O)(O)O)c(=O)c1 [VX-150, reference compound]	2.2	8.7		1.7	3.6				<1	B (80 > B >= 50)	13859	1176	2.2			15.4	7	
Cc1cc(F)ccc1Oc1ccc(C(F)(F)F)cc1C(=O)Nc1ccc(F)c(C(N)CCO)c1 (stereo not drawn) [Example 38]														50 to 80	3			
Cc1cc(F)ccc1Oc1ccc(C(F)(F)F)cc1C(=O)Nc1ccc(F)c(C(N)C(N)=O)c1 (stereo not drawn) [Example 36]														> 80	10.5			
Cc1cc(F)ccc1Oc1ccc(C(F)(F)F)cc1C(=O)Nc1ccc(F)c(C(N)CC(N)=O)c1 (stereo not drawn) [Example 1, N-(3-(1,3-diamino-3-oxopropyl)-4-fluorophenyl)-2-(4-fluoro-2-methylphenoxy)-5-(trifluoromethyl) benzamide]																		3.2
Cc1cc(F)ccc1Oc1cc(C(F)(F)F)c(Cl)cc1C(=O)Nc1ccc(F)c(OC[C@H](O)CNC(=O)CO)c1 [Example 117]	1.2	<1	> 80	<1	<1	3	114000	9570	<1							5.0	6	
Cc1cc(F)ccc1Oc1cc(C2CC2)c(C(F)(F)F)cc1C(=O)Nc1ccc(F)c(OC[C@H](O)CNC(=O)CO)c1 [Example 119]	<1	<1	> 80	5.1	1.4	1.9	44500	5190	<1						4.2	2.8		

— US20230303497A1, “BENZYLAMINE OR BENZYL ALCOHOL DERIVATIVE AND USES THEREOF” (CHENGDU HYPERWAY PHARMACEUTICALS CO., LTD, priority 2020, published 2023)
